# Oligonucleotides are written 5' to 3', each unit as a sugar letter and its base; * is a phosphorothioate linkage, no mark a phosphodiester; rarer units and linkages stand in square brackets, end groups in braces. Plain capitals give the bases only. Oligonucleotides are given in HELM: sugar(base)linkage, 5' to 3'; d 2'-deoxyribose, r ribose, m 2'-O-methylribose, p phosphate. ss, as = sense and antisense strand; d = 2'-deoxy (DNA); r = 2'-OH (RNA)
# Target: MRFAP1
# Experiment: reporter assay of Huesken 2005
# Conditions: siRNA
# Further: test concentration or dose not given here.
row,Substance,normalised inhibition (eCFP-eYFP dual reporter)
1,sense rUrUrCrUrCrArCrUrGrArCrArCrUrArCrGrUrUdTdT / antisense rArArCrGrUrArGrUrGrUrCrArGrUrGrArGrArAdCdA,72.2%
2,sense rCrGrGrGrGrCrArArGrCrUrGrUrGrGrGrArGrAdTdT / antisense rUrCrUrCrCrCrArCrArGrCrUrUrGrCrCrCrCrGdGdT,69.6%
3,sense rUrUrGrGrCrUrGrArCrArUrGrArCrArCrCrCrUdTdT / antisense rArGrGrGrUrGrUrCrArUrGrUrCrArGrCrCrArAdTdC,65.4%
4,sense rUrCrUrGrCrUrGrCrCrCrGrUrCrArUrCrCrArCdTdT / antisense rGrUrGrGrArUrGrArCrGrGrGrCrArGrCrArGrAdAdA,35.3%
5,sense rCrUrCrUrGrArGrGrArGrArGrCrGrCrUrCrUrCdTdT / antisense rGrArGrArGrCrGrCrUrCrUrCrCrUrCrArGrArGdGdC,48.8%
6,sense rCrArCrUrGrArGrArCrUrUrGrGrArGrUrUrGrGdTdT / antisense rCrCrArArCrUrCrCrArArGrUrCrUrCrArGrUrGdTdC,77.6%
7,sense rGrArGrCrCrGrUrCrCrGrCrGrGrUrUrUrCrCrAdTdT / antisense rUrGrGrArArArCrCrGrCrGrGrArCrGrGrCrUrCdAdC,70.1%
8,sense rCrUrUrGrGrArGrUrUrGrGrArGrCrUrCrArCrCdTdT / antisense rGrGrUrGrArGrCrUrCrCrArArCrUrCrCrArArGdTdC,55.2%
9,sense rGrArArUrArArCrGrUrUrCrArUrUrCrCrUrGrGdTdT / antisense rCrCrArGrGrArArUrGrArArCrGrUrUrArUrUrCdAdC,66.8%
10,sense rArCrArArGrCrArArArGrCrArGrCrGrGrArGrAdTdT / antisense rUrCrUrCrCrGrCrUrGrCrUrUrUrGrCrUrUrGrUdCdT,62.6%
11,sense rGrUrUrCrCrUrGrArArUrUrUrGrArGrGrUrGrCdTdT / antisense rGrCrArCrCrUrCrArArArUrUrCrArGrGrArArCdAdC,23.1%
12,sense rArArGrGrCrCrGrArCrGrArGrArArGrGrCrGrCdTdT / antisense rGrCrGrCrCrUrUrCrUrCrGrUrCrGrGrCrCrUrUdCdT,63.1%
13,sense rGrCrArArArGrCrArGrCrGrGrArGrArUrGrCrGdTdT / antisense rCrGrCrArUrCrUrCrCrGrCrUrGrCrUrUrUrGrCdTdT,74.8%
14,sense rUrCrUrGrGrUrUrGrArGrUrGrArUrGrGrCrGrAdTdT / antisense rUrCrGrCrCrArUrCrArCrUrCrArArCrCrArGrAdAdT,75.7%
15,sense rUrCrCrUrGrGrCrUrUrUrGrGrUrGrUrGrUrUrCdTdT / antisense rGrArArCrArCrArCrCrArArArGrCrCrArGrGrAdAdT,66.9%
16,sense rCrGrGrUrArUrGrGrGrArGrArUrGrArGrGrUrCdTdT / antisense rGrArCrCrUrCrArUrCrUrCrCrCrArUrArCrCrGdGdG,84.8%
17,sense rArCrUrGrArGrArCrUrUrGrGrArGrUrUrGrGrAdTdT / antisense rUrCrCrArArCrUrCrCrArArGrUrCrUrCrArGrUdGdT,88.7%
18,sense rCrArGrGrArGrArUrGrGrCrGrArArGrArUrGrGdTdT / antisense rCrCrArUrCrUrUrCrGrCrCrArUrCrUrCrCrUrGdCdG,81.9%
19,sense rUrCrCrArGrArUrCrArArGrArCrGrCrArGrGrUdTdT / antisense rArCrCrUrGrCrGrUrCrUrUrGrArUrCrUrGrGrAdTdC,54.6%
20,sense rGrArGrGrArCrUrCrCrArUrGrCrArGrCrArArUdTdT / antisense rArUrUrGrCrUrGrCrArUrGrGrArGrUrCrCrUrCdTdT,44.8%
21,sense rCrUrUrCrGrArGrCrArGrUrUrUrCrUrGrCrUrGdTdT / antisense rCrArGrCrArGrArArArCrUrGrCrUrCrGrArArGdTdC,59.9%
22,sense rUrArGrGrArCrUrGrArUrGrArCrCrUrGrGrGrAdTdT / antisense rUrCrCrCrArGrGrUrCrArUrCrArGrUrCrCrUrAdGdC,70.4%
23,sense rCrGrGrArArCrCrCrGrGrUrArUrGrGrGrArGrAdTdT / antisense rUrCrUrCrCrCrArUrArCrCrGrGrGrUrUrCrCrGdTdT,49.8%
24,sense rCrCrUrGrCrArGrGrGrCrGrCrGrGrGrCrGrGrCdTdT / antisense rGrCrCrGrCrCrCrGrCrGrCrCrCrUrGrCrArGrGdTdG,60.9%
25,sense rGrCrUrCrUrUrUrCrUrUrGrGrGrUrGrArCrCrUdTdT / antisense rArGrGrUrCrArCrCrCrArArGrArArArGrArGrCdAdA,95.8%
26,sense rGrGrUrArUrCrCrCrCrArUrArUrArUrUrUrGrAdTdT / antisense rUrCrArArArUrArUrArUrGrGrGrGrArUrArCrCdAdA,76.3%
27,sense rCrCrArGrArGrArGrCrCrUrUrUrGrUrUrUrUrCdTdT / antisense rGrArArArArCrArArArGrGrCrUrCrUrCrUrGrGdTdT,89.6%
28,sense rGrGrArUrUrGrUrArUrUrGrUrUrUrCrUrArUrGdTdT / antisense rCrArUrArGrArArArCrArArUrArCrArArUrCrCdTdC,93.3%
29,sense rUrUrArCrCrArUrGrUrUrGrArArArArCrArArAdTdT / antisense rUrUrUrGrUrUrUrUrCrArArCrArUrGrGrUrArAdGdG,91.3%
30,sense rGrGrCrArArGrCrUrGrUrGrGrGrArGrArUrGrGdTdT / antisense rCrCrArUrCrUrCrCrCrArCrArGrCrUrUrGrCrCdCdC,81%

# Target: TMEM63B
# Experiment: reporter assay of Huesken 2005
# Conditions: siRNA
row,Substance,normalised inhibition (eCFP-eYFP dual reporter)
1,RNA1{r(C)p.r(G)p.r(U)p.r(G)p.r(U)p.r(G)p.r(U)p.r(A)p.r(A)p.r(A)p.r(U)p.r(G)p.r(C)p.r(C)p.r(A)p.r(G)p.r(G)p.r(G)p.r(C)p.d(T)p.d(T)}|RNA2{r(G)p.r(C)p.r(C)p.r(C)p.r(U)p.r(G)p.r(G)p.r(C)p.r(A)p.r(U)p.r(U)p.r(U)p.r(A)p.r(C)p.r(A)p.r(C)p.r(A)p.r(C)p.r(G)p.d(T)p.d(T)}$$$RNA1{StrandType:ss}|RNA2{StrandType:as}$,52.1%
2,RNA1{r(G)p.r(A)p.r(U)p.r(A)p.r(C)p.r(U)p.r(G)p.r(U)p.r(G)p.r(G)p.r(A)p.r(C)p.r(C)p.r(C)p.r(C)p.r(A)p.r(G)p.r(A)p.r(A)p.d(T)p.d(T)}|RNA2{r(U)p.r(U)p.r(C)p.r(U)p.r(G)p.r(G)p.r(G)p.r(G)p.r(U)p.r(C)p.r(C)p.r(A)p.r(C)p.r(A)p.r(G)p.r(U)p.r(A)p.r(U)p.r(C)p.d(T)p.d(G)}$$$RNA1{StrandType:ss}|RNA2{StrandType:as}$,73.8%
3,RNA1{r(U)p.r(A)p.r(A)p.r(A)p.r(G)p.r(G)p.r(A)p.r(U)p.r(G)p.r(A)p.r(U)p.r(G)p.r(A)p.r(G)p.r(A)p.r(U)p.r(C)p.r(C)p.r(G)p.d(T)p.d(T)}|RNA2{r(C)p.r(G)p.r(G)p.r(A)p.r(U)p.r(C)p.r(U)p.r(C)p.r(A)p.r(U)p.r(C)p.r(A)p.r(U)p.r(C)p.r(C)p.r(U)p.r(U)p.r(U)p.r(A)p.d(T)p.d(C)}$$$RNA1{StrandType:ss}|RNA2{StrandType:as}$,24.7%

# From the OligoGym collection
